Test results from ChEMBL document CHEMBL3430912, “GSK Tres Cantos Anti-Kinetoplastid Screening (TCAKS) Data”.

What was measured:
Trypanosoma cruzi [1] = test: (§1) GSK_TCAKS: pIC50 Trypanosoma cruzi Imaging: Infected Cells. […] Cells were then washed once with PBS before infection. T. cruzi trypomastigotes, collected at days 5 to 8 after infection from LLC-MK2 parasite infected cultures, were allowed to swim out for 4h at 37C from a centrifuged pellet (2,500 rpm/10 min/room temperature). Trypomastigotes were then collected and counted in a CASY Cell Counter. Trypomastigotes, in supplemented DMEM, were added to H9c2 cultures in a multiplicity of infection of 1 and incubated for 18 h. Cells were washed once with PBS before incubation of the infected H9c2 monolayer with trypsin (Life-Technologies) to detach cells from the flask. Cells were counted in a CASY Cell Counter using a 150 um capillary and their density set at 5 * 10^4 cells per mL in supplemented assay DMEM. Infected H9c2 were dispensed into 384-well poly-lysine coated assay plates at 50uL per well using a Multidrop Combi dispenser. After seeding them, the plates were incubated at 37C, 5% CO2 for 72h. Cultures were then fixed and stained by addition of 50 uL of a solution containing 8% formaldehyde and 4 uM DRAQ5 DNA dye (BioStatus, UK) per well. […] Five images were collected per well for reliable statistical analysis. Automated image analysis was performed with a script developed on Acapella High Content Imaging and Analysis Software (PerkinElmer). Output: percentage of infected cells per well as a second infection marker.; type: functional, organism-based, Rattus norvegicus; settings: H9c2, 4 h
Trypanosoma cruzi [2] = test: as §1, with “H2C9” for “Trypanosoma cruzi”, “H9c2 Host Cardiomyocytes.” for “Infected Cells.”, “Number” for “percentage”, “H9c2 Host Cardiomyocytes nuclei to determine drug-related cytotoxicity.” for “infected cells per well as a second infection marker.”; type: functional, organism-based, Rattus norvegicus; settings: H9c2, 4 h
[3] = tested on: Trypanosoma brucei brucei; test: GSK_TCAKS: pIC50 Trypanosoma brucei viability assay using luminiscence. Assay plates (1536-well) were prepared. T. brucei cultures were harvested and counted in a CASY cell counter. A parasite suspension was prepared at a final concentration of 5 * 10^4 cells/mL in complete HMI9 medium and 6uL was dispensed to all wells containing compounds using a Multidrop Combi dispenser. 6uL of HMI9 media with 0.4% DMSO were dispensed to control columns. Plates were incubated for 24 h at 37C, 5% CO2 then tempered for 10 min at room temperature. ATP content was quantified by adding 4 uL of CellTiter-Glo Reagent (Promega) according to the manufacturer's instructions. Luminescence was measured using a ViewLux.; type: functional, organism-based; settings: Lister 427, CASY
Trypanosoma cruzi [4] = test: GSK_TCAKS: pIC50 Trypanosoma cruzi viability assay using beta-GAL activity. This assay was run at single shot at 5uM compound concentration per well. The biological reagents consisted of NIH-3T3 host cells and trypomastigotes parasitic cells; both cell types were set to a 3.3 * 10^5 cells/mL dilution in assay DMEM by means of a CASY cell counter device using a 60um capillary. 6 uL of the mixture were dispensed per well (about 1 * 10^3 host-cells and 1 * 10^3 parasites) with a Multidrop Combi dispenser. […] In all wells, the percentage of DMSO never exceeded 0.5%. Plates incubated for four days at 37C, 5% CO2. The substrate used for the assay fluorescence intensity (FLINT) readout was resorufin-beta-D-galactopiranoside (Sigma-Aldrich) at 5uM per well. It was diluted in PBS supplemented with the soft detergent Igepal (Fluka).; type: functional, organism-based, Mus musculus; settings: Tulahuen, NIH3T3
[5] = biological target: Sterol 14-alpha demethylase (Trypanosoma cruzi (strain CL Brener), UniProt Q7Z1V1); test: GSK_TCAKS: pIC50 CYP51 from Trypanosoma cruzi.; type: functional
Sterol 14-alpha demethylase, sequence (Q7Z1V1 whole entry): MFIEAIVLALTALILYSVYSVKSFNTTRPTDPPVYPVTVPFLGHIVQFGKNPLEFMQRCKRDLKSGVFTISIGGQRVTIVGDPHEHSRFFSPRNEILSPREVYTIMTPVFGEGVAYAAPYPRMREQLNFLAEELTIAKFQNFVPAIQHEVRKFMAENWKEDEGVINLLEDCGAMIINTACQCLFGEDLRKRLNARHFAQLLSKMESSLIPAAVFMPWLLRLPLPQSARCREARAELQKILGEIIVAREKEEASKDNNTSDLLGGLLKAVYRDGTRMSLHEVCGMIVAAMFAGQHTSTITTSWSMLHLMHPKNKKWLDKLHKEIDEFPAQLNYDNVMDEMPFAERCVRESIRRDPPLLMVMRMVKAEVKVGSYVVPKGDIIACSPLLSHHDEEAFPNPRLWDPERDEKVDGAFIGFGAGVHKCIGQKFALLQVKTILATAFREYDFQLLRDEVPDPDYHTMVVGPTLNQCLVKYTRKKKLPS

[6] = GSK_TCAKS: pIC50 HepG2 human cell line viability assay using luminiscence. […] Seeding density was checked to ensure that new mono-layers were not more than 50% confluent at the time of harvesting. Cell suspension was added to 500 mL of the same medium at a final density of 1.2 * 10^5 cells/mL. This cell suspension was dispensed (25 uL, 3000 cells per well) into 384-well clear-bottom plates using a Multidrop Combi dispenser. Prior to addition of the cell suspension, the screening compounds (250 nL) were pre-dispensed into the plates with an Echo liquid handler. Plates were incubated for 48 h at 37C, 5% CO2. After incubation, plates equilibrated at room temperature for 30 min before proceeding to develop the luminescent signal. The signal developer, CellTiter-Glo Reagent, was allowed to equilibrate at room temperature for 30 min and added to the plates (25uL per well) using a Multidrop Combi dispenser. Plates were left for 10 min at room temperature for stabilization and then read using a ViewLux.; type: toxicity, cell-based
Trypanosoma cruzi [7] = test: GSK_TCAKS: pIC50 Trypanosoma cruzi Imaging: Amastigotes/Cell. […] Cells were then washed once with PBS before infection. T. cruzi trypomastigotes, collected at days 5 to 8 after infection from LLC-MK2 parasite infected cultures, were allowed to swim out for 4h at 37C from a centrifuged pellet (2,500 rpm/10 min/room temperature). Trypomastigotes were then collected and counted in a CASY Cell Counter. Trypomastigotes, in supplemented DMEM, were added to H9c2 cultures in a multiplicity of infection of 1 and incubated for 18 h. Cells were washed once with PBS before incubation of the infected H9c2 monolayer with trypsin (Life-Technologies) to detach cells from the flask. Cells were counted in a CASY Cell Counter using a 150 um capillary and their density set at 5 * 10^4 cells per mL in supplemented assay DMEM. Infected H9c2 were dispensed into 384-well poly-lysine coated assay plates at 50uL per well using a Multidrop Combi dispenser. After seeding them, the plates were incubated at 37C, 5% CO2 for 72h. Cultures were then fixed and stained by addition of 50 uL of a solution containing 8% formaldehyde and 4 uM DRAQ5 DNA dye (BioStatus, UK) per well. […] Five images were collected per well for reliable statistical analysis. Automated image analysis was performed with a script developed on Acapella High Content Imaging and Analysis Software (PerkinElmer). Output: number of amastigotes per cell as infection level measurement.; type: functional, organism-based, Rattus norvegicus; settings: H9c2, 4 h
Leishmania donovani [8] = test: GSK_TCAKS: pIC50 Leishmania donovani viability assay using fluorescence intensity. Assay plates (1536-well) were prepared by adding 30nL per well of compound. For single shot assay, the final compound concentration was 5uM. […] Briefly, eGFP LdBOB axenic amastigotes were harvested, fixed and counted in a CASY cell counter (Roche-Applied Science). A final concentration of 1.5 * 10^5 cells per well were prepared in amastigote media containing 500 U/mL penicillin/streptomycin (Invitrogen) and 6uL was dispensed to each experimental well using a Multidrop Combi dispenser (Thermo Scientific). 6uL of assay media was dispensed to control columns used as reference for 100% compound response. Following incubation for 72 h at 37C, 5% CO2, 2 uL of resazurin was added to each well at a final concentration of 0.5 mM in phosphate buffered saline (PBS) with IGEPAL (Sigma-Aldrich), 0.05% (v/v).; type: functional, organism-based
Leishmania donovani [9] = test: (§2) GSK_TCAKS: pIC50 Leishmania donovani Imaging: Infected Macrophages. Assay plates (384-well) were prepared by adding 250nL of compound to each well. For single shot assay, the final compound concentration was 5 uM. […] Automated image analysis was performed with a script developed on Acapella High Content Imaging and Analysis Software (PerkinElmer). Output: Percent of infected macrophage cells were reported for each well.; type: functional, organism-based, Homo sapiens; settings: THP-1
Leishmania donovani [10] = test: as §2, with “Amastigotes/Macrophages.” for “Infected Macrophages.”, “Average number” for “Percent”, “amastigotes per” for “infected”, “cell” for “cells”; type: functional, organism-based, Homo sapiens; settings: THP-1
[11] = tested on: Trypanosoma brucei brucei; test: GSK_TCAKS: pIC50 Trypanosoma brucei viability assay using fluorescence intensity. Assay plates (1536-well) were prepared by dispensing 25nL of compound solution per well using an Echo acoustic dispenser (Labcyte).; type: functional, organism-based; settings: Lister 427, 2 h
Leishmania donovani [12] = test: as §2, with “THP-1 Host” for “Infected”, “THP-1 cell count” for “Percent of infected macrophage cells”; type: functional, organism-based, Homo sapiens

Compound | IC50 (Trypanosoma cruzi [1]) | IC50 (Trypanosoma cruzi [2]) | IC50 [3] | IC50 (Trypanosoma cruzi [4]) | IC50 [5] | IC50 at 48 h [6] | IC50 (Trypanosoma cruzi [7]) | IC50 (Leishmania donovani [8]) | IC50 (Leishmania donovani [9]) | IC50 (Leishmania donovani [10]) | IC50 [11] | IC50 (Leishmania donovani [12])
Cc1ccc2onc(Nc3ccnc(Nc4cccc(S(C)(=O)=O)c4)n3)c2c1 | 0.631 µM | 5.01 µM | 7.94 µM | 3.98 µM | 39.8 µM | 50.1 µM | 0.398 µM | 5.01 µM | 2 µM | 1 µM | 6.31 µM | 20 µM
Cn1nc(-c2ccc(NC(=O)Cc3ccccc3Cl)cc2)c2c(N)ncnc21 | 1.26 µM | 7.94 µM | 0.251 µM | 2 µM | 63.1 µM | > 100 µM | 1 µM | > 50.1 µM | > 50.1 µM | > 50.1 µM | 0.398 µM | > 50.1 µM
Cc1cc(Nc2ccc(C#N)c(Cl)c2C)[nH]n1 | > 50.1 µM | > 50.1 µM | 0.251 µM | 25.1 µM | 39.8 µM | > 100 µM | 20 µM | 50.1 µM | > 50.1 µM | > 50.1 µM | 0.00794 µM | 20 µM
Cc1c(Nc2cc(C3CC3)n[nH]2)ccc(C#N)c1Cl | 25.1 µM | 10 µM | 0.631 µM | 2.51 µM | 20 µM | 39.8 µM | 15.8 µM | 20 µM | 39.8 µM | 25.1 µM | 0.398 µM | 25.1 µM
CCOC(=O)c1cn[nH]c1S(=O)(=O)N1CCC1c1ccccc1 (stereo unspecified) | > 50.1 µM | > 50.1 µM | 0.794 µM | > 50.1 µM | 50.1 µM | > 100 µM | > 50.1 µM | > 50.1 µM | > 50.1 µM | > 50.1 µM | 0.631 µM | > 50.1 µM
COc1cc(-c2noc(CC#N)n2)ccc1OC(F)F | 39.8 µM | 31.6 µM | 0.631 µM | 39.8 µM | 100 µM | > 100 µM | 25.1 µM | > 50.1 µM | > 50.1 µM | > 50.1 µM | 0.631 µM | 50.1 µM
CS(=O)(=O)c1ccc(Nc2nccc(Nc3n[nH]c4ccc(F)cc34)n2)c(F)c1 | 31.6 µM | 15.8 µM | 0.794 µM | 7.94 µM | 39.8 µM | 79.4 µM | 3.98 µM | 12.6 µM | 12.6 µM | 10 µM | 0.501 µM | 15.8 µM
Cc1nc2c(-c3ncn[nH]3)cc(NC(=O)Cc3ccccc3)cn2c1C | 1 µM | 6.31 µM | 10 µM | 1 µM | 10 µM | 15.8 µM | 0.794 µM | 0.794 µM | 0.398 µM | 0.316 µM | 3.16 µM | 7.94 µM
Cc1[nH]nc(Nc2ccnc3[nH]ccc23)c1C | > 50.1 µM | > 50.1 µM | 0.251 µM | 3.98 µM | 79.4 µM | > 100 µM | > 50.1 µM | > 50.1 µM | > 50.1 µM | > 50.1 µM | 0.126 µM | > 50.1 µM
COc1cc(Nc2nccc(Nc3onc(C)c3C)n2)cc(S(=O)(=O)C2CCOCC2)c1 | 25.1 µM | 10 µM | 0.501 µM | 6.31 µM | 7.94 µM | 31.6 µM | 12.6 µM | 39.8 µM | > 50.1 µM | 5.01 µM | 0.501 µM | 39.8 µM
O=C(NCCc1ccn(-c2ccccc2)n1)C1CCCCC1 | 1 µM | > 50.1 µM | 0.316 µM | 1.26 µM | 100 µM | > 100 µM | 1 µM | > 50.1 µM | > 50.1 µM | > 50.1 µM | 0.251 µM | > 50.1 µM
CC(C)(C)C(=O)Nc1cc(C2CC2)nn1-c1nc2c(c(=O)[nH]1)CCCC2 | 0.501 µM | 2 µM | 0.2 µM | 0.501 µM | > 100 µM | > 100 µM | 0.126 µM | 0.0794 µM | 5.01 µM | 2 µM | 0.158 µM | 7.94 µM
Cc1cc(NC(=O)C2CCCCC2)n(-c2nc3c(c(=O)[nH]2)CCC3)n1 | 0.501 µM | 2 µM | 0.158 µM | 0.316 µM | > 100 µM | 50.1 µM | 0.158 µM | 0.0398 µM | 5.01 µM | 3.16 µM | 0.126 µM | 10 µM
Cc1cc(NC(=O)CC2CCCCC2)n(-c2nc3c(c(=O)[nH]2)CCC3)n1 | 0.316 µM | 3.98 µM | 0.158 µM | 0.251 µM | > 100 µM | > 100 µM | 0.126 µM | 0.0316 µM | 3.16 µM | 1.58 µM | 0.2 µM | 3.98 µM
Cc1ccc2c(c1)SC(C(=O)Nc1nnc(-c3ccccn3)[nH]1)C2 (stereo unspecified) | 7.94 µM | > 50.1 µM | > 39.8 µM | 5.01 µM | > 100 µM | 25.1 µM | 6.31 µM | 6.31 µM | 3.98 µM | 2.51 µM | 3.98 µM | 25.1 µM
Cn1nccc1NC(=O)Cn1ccc(-c2ccncc2)n1 | > 50.1 µM | > 50.1 µM | 0.631 µM | > 50.1 µM | 6.31 µM | > 100 µM | > 50.1 µM | > 50.1 µM | > 50.1 µM | > 50.1 µM | 0.631 µM | > 50.1 µM
Cc1cn[nH]c1C1CCCN(Cc2nc3ccccc3n2C)C1 (stereo unspecified) | 20 µM | > 50.1 µM | 7.94 µM | 3.16 µM | 1.26 µM | 50.1 µM | 10 µM | 15.8 µM | 3.98 µM | 3.16 µM | 6.31 µM | 20 µM
COc1ccc(Cl)cc1CC(=O)Nc1nnc(-c2ccccn2)[nH]1 | > 50.1 µM | > 50.1 µM | > 39.8 µM | 10 µM | > 100 µM | 31.6 µM | 10 µM | 3.98 µM | 6.31 µM | 5.01 µM | 15.8 µM | > 50.1 µM
